In patent US7687502B2, “Substituted quinazoline or pyridopyrimidine derivative” (Banyu Pharmaceutical Co., Ltd., priority 2004, dated 2010):

Molecular target: T1, Recombinant human liver GK (Homo sapiens, UniProt P35557)
T1 construct: made in house; host or cells: E. coli
T1 sequence (P35557 1-466 isoform P35557-2): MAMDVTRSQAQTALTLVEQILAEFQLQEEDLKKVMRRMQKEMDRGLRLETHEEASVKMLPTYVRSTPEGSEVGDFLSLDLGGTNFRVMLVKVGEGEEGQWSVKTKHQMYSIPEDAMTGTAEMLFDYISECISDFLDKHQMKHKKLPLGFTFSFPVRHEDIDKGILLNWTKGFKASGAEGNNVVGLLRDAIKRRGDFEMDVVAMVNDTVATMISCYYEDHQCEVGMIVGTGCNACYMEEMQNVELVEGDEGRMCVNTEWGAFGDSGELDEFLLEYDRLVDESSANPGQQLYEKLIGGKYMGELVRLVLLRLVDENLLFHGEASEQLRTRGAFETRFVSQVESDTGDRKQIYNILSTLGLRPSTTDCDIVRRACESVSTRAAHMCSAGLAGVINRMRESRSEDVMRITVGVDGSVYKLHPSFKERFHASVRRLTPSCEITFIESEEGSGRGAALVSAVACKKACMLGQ
Assay: Glucokinase activating action (G6PDH-coupled thio-NADH absorbance assay)
Format: biochemical
Details: GK activating ability, final glucose concentration 2.5 mM, 30° C.; for Emax: OD of DMSO control defined as 100%
Protocol: Glucokinase activating ability was measured using the compound of the present invention.
Measurement of an excellent glucokinase activating action of the compounds represented by the aforementioned formula (I) is able to be carried out by a method mentioned in literatures such as Diabetes, vol. 45, pages 1671 to 1677 (1996) or a method similar thereto.
Recombinant human liver GK used in this assay was expressed in E. coli as FLAG fusion protein and purified by ANTIFLAG M2 AFFINITY GEL (Sigma).
The assay was conducted at 30° C. using a flat-bottom 96-well plate. An assay buffer (25 mM Hepes Buffer: pH=7.2; 2 mM MgCl2, 1 mM ATP, 0.5 mM TNAD and 1 mM dithiothreitol) (69 μl) was dispensed and 1 μl of a solution of a compound in DMSO or DMSO (as a control) was added. After that, 20 μl of an enzyme mixture (FLAG-GK, 20 U/ml G6PDH) cooled in ice was added, then 10 μl of 25 mM glucose which is a substrate was added and the reaction was started (final glucose concentration=2.5 mM).
After starting the reaction, an increase in absorbance at 405 nm was measured for 10 minutes every 30 seconds and the compound was evaluated using the increase during the first 5 minutes. FLAG-GK was added in such a manner that an increase in absorbance after 5 minutes in the presence of 1% of DMSO became between 0.05 and 0.1.
OD value in the case of DMSO control was defined as 100% and OD values in various concentrations of the compound to be evaluated were measured. From the OD values in various concentrations, Emax (%) and EC50 (μM) were calculated and used as indexes of GK activating ability of the compound.

Emax | EC50 | Structure (SMILES)
1000% | 180 nM | c1cnc2sc(Nc3ncnc4ccc(Sc5nnc[nH]5)cc34)nc2c1 [Example 1, [6-(4H-[1,2,4]Triazol-3-ylsulfanyl)-quinazolin-4-yl]-thiazolo[5,4-b]pyridin-2-yl-amine]
860% | 80 nM | FCC(CF)Oc1ccc2ncnc(Nc3nc4cccnc4s3)c2c1 [Example 22, [6-(2-Fluoro-1-fluoromethyl-ethoxy)-quinazolin-4-yl]-thiazolo[5,4-b]pyridin-2-yl-amine]
– | 90 nM | c1cnc2sc(Nc3ncnc4ccc(Sc5nnc[nH]5)nc34)nc2c1 [Example 31]
